Reference: the NIST ThermoML archive (doi:10.1021/je049950g)

Details: Liquid

CC1COC(=O)O1 (stereo not given) [4-methyl-1,3-dioxolan-2-one]
Details	vapor or sublimation pressure [kPa]
348.15 K	0.2509
353.15 K	0.3277
358.15 K	0.4377
363.15 K	0.5553
368.15 K	0.7206
373.15 K	0.9231
378.15 K	1.167
388.15 K	1.856
393.15 K	2.284
398.15 K	2.826
403.15 K	3.482
408.15 K	4.265
413.15 K	5.153
418.15 K	6.226
423.15 K	7.454
428.15 K	8.959
433.15 K	10.78
438.15 K	12.69
443.15 K	14.81
448.15 K	17.81
453.15 K	20.5
458.15 K	24.08
463.15 K	27.96
468.15 K	33.01
473.15 K	37.77

CC(=O)N(C)C [N,N-dimethylethanamide]
Details	vapor or sublimation pressure [kPa]
298.15 K	0.2936
303.15 K	0.3925
308.15 K	0.5179
313.15 K	0.6782
318.15 K	0.8946
323.15 K	1.163
328.15 K	1.526
333.15 K	1.983
338.15 K	2.556
343.15 K	3.27
348.15 K	4.135
353.15 K	5.192
363.15 K	7.995
368.15 K	9.806
373.15 K	11.98
378.15 K	14.52
383.15 K	17.5
388.15 K	21.01
393.15 K	25.03
398.15 K	29.69
403.15 K	35.02
408.15 K	41.11
413.15 K	48.06
418.15 K	55.91
423.15 K	64.78
